Values of other authors, collected in patent publication US20240417323A1, “BUBBLE-CONTAINING GYPSUM SLURRY” (KAO CORPORATION, priority 2022, published 2024).

Details: 1-octanol/water; measured value if any, otherwise C log P calculated by C LOG P v 4.01

Log P	SMILES
1.57	CCC(C)(C)CO [2,2-dimethyl-1-butanol]
1.75	CCC(CC)CO [2-ethyl-1-butanol]
1.75	CCCC(C)CO (centres unmarked) [2-methyl-1-pentanol]
1.57	CCCC(C)(C)O [2-methyl-2-pentanol]
1.57	CCC(O)C(C)C (centres unmarked) [2-methyl-3-pentanol]
1.75	CCC(C)CCO (centres unmarked) [3-methyl-1-pentanol]
1.28	CC(C)C(C)O (centres unmarked) [3-methyl-2-butanol]
1.57	CCC(C)C(C)O (centres unmarked) [3-methyl-2-pentanol]
1.57	CCC(C)(O)CC [3-methyl-3-pentanol]
1.75	CC(C)CCCO [4-methyl-1-pentanol]
1.57	CC(C)CC(C)O (centres unmarked) [4-methyl-2-pentanol]
2.73	CC(C)CCCCCO [6-methyl-1-heptanol]
2.62	CCCCCCCO [Example 1-heptanol, 1-heptanol]
0.88	CCCC=O [butanal]
2.03	CCCCOCC [butyl ethyl ether]
0.8	CCCCOC(=O)C(C)O (centres unmarked) [butyl lactate]
0.71	OC1CCCC1 [cyclopentanol]
1.52	CC(C)OC(C)C [diisopropyl ether]
0.1	COC [dimethyl ether]
1.78	CCCCCC=O [hexanal]
